This experiment deals with Human umbilical vein endothelial cells (HUVEC). As to the kind of experiment: Cellular uptake of FITC-BSA released from PLGA/pSi microspheres (transwell, confocal). The experiment is classed as cell-based. The settings on record: 7 days. As to the method: 40,000 HUVEC were seeded and cultured on a glass coverslip in a 12 well plate with 500 million PLGA/pSi microspheres loaded with FITC-BSA in a transwell on top of the cells. The media were changed every 3 days. Cellular uptake of FITC-BSA released from the PLGA/pSi microspheres was observed by confocal microscopy staining cells with fluorescent phalloidin (actin filaments) and DRAQ5 (nuclei) after fixation (10% formaldehyde).
Detection of the FITC-BSA loaded pSi particles was based on autofluorescence using 488 excitation laser and the cells were analyzed by using 561 and 632 excitation laser for pholloidin and DRAQ5 respectively. Images were acquired using a Leica MD 6000 upright confocal microscope equipped with a 63× oil immersion objective.

As for “BSA in solution: control group: bovine serum albumin in solution”, the “BSA accumulation in cells” value was “did not show any BSA accommulation in cells”.

Values taken from US10058633B2, “Biodegradable scaffolds” (Board of Regents of the University of Texas System, priority 2010, dated 2018).
